Assay results reported in patent US12534469B2 (CHILDREN'S HOSPITAL MEDICAL CENTER, priority 2020, dated 2026).

Biological target: T1, FLT3 (Homo sapiens, UniProt P36888)
T1 construct: using full-length kinases in the presence of cellular concentrations of ATP in live, uncompromised cells; assay by Reaction Biology; host or cells: HEK-293 (ATCC), transient transfection
T1 sequence (P36888 27-993): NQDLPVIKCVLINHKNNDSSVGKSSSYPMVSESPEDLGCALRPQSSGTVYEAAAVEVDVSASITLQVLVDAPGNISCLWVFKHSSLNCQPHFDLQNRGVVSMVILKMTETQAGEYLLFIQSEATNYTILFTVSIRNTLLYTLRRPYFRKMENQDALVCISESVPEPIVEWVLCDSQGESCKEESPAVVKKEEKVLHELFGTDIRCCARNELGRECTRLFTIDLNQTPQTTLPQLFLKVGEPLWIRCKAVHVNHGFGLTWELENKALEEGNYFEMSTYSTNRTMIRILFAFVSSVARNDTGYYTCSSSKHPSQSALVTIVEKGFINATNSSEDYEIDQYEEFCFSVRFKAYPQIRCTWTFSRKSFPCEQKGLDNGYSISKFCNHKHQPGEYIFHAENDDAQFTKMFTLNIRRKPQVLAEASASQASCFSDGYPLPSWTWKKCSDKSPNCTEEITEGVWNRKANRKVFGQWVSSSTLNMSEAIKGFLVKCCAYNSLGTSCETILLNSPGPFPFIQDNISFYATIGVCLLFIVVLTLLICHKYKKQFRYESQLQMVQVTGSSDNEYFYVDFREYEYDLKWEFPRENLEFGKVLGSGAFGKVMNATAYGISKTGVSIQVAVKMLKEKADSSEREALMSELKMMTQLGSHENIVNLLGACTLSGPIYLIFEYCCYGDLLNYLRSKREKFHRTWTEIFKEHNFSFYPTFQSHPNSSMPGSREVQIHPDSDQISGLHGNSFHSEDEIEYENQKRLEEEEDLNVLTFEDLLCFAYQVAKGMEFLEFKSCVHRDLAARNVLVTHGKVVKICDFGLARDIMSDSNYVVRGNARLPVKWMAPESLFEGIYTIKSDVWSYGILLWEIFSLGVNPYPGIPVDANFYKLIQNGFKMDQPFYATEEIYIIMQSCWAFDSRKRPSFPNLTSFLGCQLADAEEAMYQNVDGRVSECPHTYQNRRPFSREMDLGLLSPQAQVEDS
Assay: Reaction Biology NanoBRET target engagement assay, FLT3
Assay type: cell-based
Conditions: transfected HEK-293 cells
Text: The NanoBRET assay measures kinase engagement in real time in the context of the intact cell. Unlike the previously described biochemical kinase assay methodologies in Examples 26-27, the NanoBRET assay measures the binding and activity characteristics under equilibrium conditions using full-length kinases in the presence of cellular concentrations of ATP in live, uncompromised cells. As such, the assay provides a more relevant assessment of kinase potency and selectivity that would be expected to be observed in the native cellular environment, where potency is often considerably lower than that observed in the isolated biochemical assays (Vasta, J. D. et al., (2018) Cell Chem. Biol. 25, 206-214). The assay uses a Kinase-NanoLuc® fusion vector expressing a kinase protein to which a luciferase tag has been added, a cell-permeant fluorescent NanoBRET™ tracer, a NanoLuc® substrate, and an extracellular NanoLuc® inhibitor. Upon expression of the luciferase-tagged kinase, cells will produce a strong BRET signal only in the presence of the NanoBRET™ tracer. The extracellular NanoLuc® inhibitor ensures that the BRET signal observed emanates only from live cells. Because the BRET signal has tight distance constraints, addition of the test compound will decrease the BRET signal if the compound competes with the NanoBRET™ tracer for binding to the kinase domain. Under the appropriate tracer conditions established by the manufacturer, quantitative intracellular affinity and relative potency can then be determined using Mass Action model equations.
HEK-293 cells were purchased from ATCC. FuGENEHD Transfection Reagent, Kinase-NanoLucfusion plasmids, Transfection Carrier DNA, NanoBRETTracers and dilution buffer, NanoBRETNano-Glo Substrate, Extracellular NanoLucInhibitor were obtained from Promega.
Assays were conducted following Promega assay protocol with some modifications. HEK-293 Cells were transiently transfected with Kinase-NanoLucFusion Vector DNA by FuGENEHD Transfection Reagent. Testing compounds were delivered into 384 well assay plate by Echo 550 (LabcyteInc, Sunnyvale, CA). Transfected cells were harvested and mixed with NanoBRETTracer Reagent and dispensed into 384 well plates and incubated at 37° C. in 5% CO2 cell culture incubator for 1 hour. The NanoBRETNano-Glo Substrate plus Extracellular NanoLucInhibitor Solution were added into the wells of the assay plate and incubated for 2-3 minutes at room temperature. The donor emission wavelength (460 nm) and acceptor emission wavelength (600 nm) were measured in the EnVisionplate reader. The BRET Ratios were calculated. BRET Ratio=[(Acceptor sample÷Donor sample)−(Acceptor no-tracer control÷Donor no-tracer control)]. The IC50 values of compounds were calculated with Prism GraphPad program.
• 1). Cultivate HEK-293 cells (70-80% confluence) appropriately prior to assay. Trypsinize and collect HEK-293 cells. • 2). Prepare lipid: DNA complexes as follows: • a. Prepare a 10 μg/ml solution of DNA in Opti-MEM without serum that consists of the following ratios of carrier DNA and DNA encoding NanoLuc® fusion. 9.0 μg/mL of Transfection Carrier DNA, 1.0 μg/mL of NanoLuc fusion vector DNA and 1 mL of Opti-MEM without phenol red. Mix thoroughly. • b. Add 30 μl of FuGENE HD Transfection Reagent into each milliliter of DNA mixture to form lipid:DNA complex. • c. Mix by inversion 10 times. • d. Incubate at ambient temperature for 20 minutes to allow complexes to form. • 3). In a sterile, conical tube, mix 1 part of lipid:DNA complex with 20 parts of HEK-293 cells in suspension. Mix gently by inversion 5 times. • 4). Dispense cells+lipid:DNA complex into a sterile tissue culture dish and incubate for 22-24 hours. 2. Addition of Test Compounds (Dry Plate Shooting)
Each test compound is delivered from the compound source plate to the wells of 384-well white NBS plate by Echo 550.
• 1). […]

SMILES | IC50 [nM]
COc1cc2ncc(-c3cccc(N[C@H]4CNC[C@@H]4F)n3)n2nc1C(C)(O)C(F)(F)F (single isomer, unassigned; fast-eluting) [Compound 133] | 226
F[C@H]1CNC[C@@H]1Nc1cccc(-c2cnc3ccc(-c4cnn5ccccc45)nn23)n1 [Compound 9, N-((3S,4S)-4-fluoropyrrolidin-3-yl)-6-(6-(pyrazolo[1,5-a]pyridin-3-yl)imidazo[1,2-b]pyridazin-3-yl)pyridin-2-amine] | 367
c1cc(N[C@@H]2CCCNC2)nc(-c2cnc3ccc(-c4cnn5ccccc45)nn23)c1 [Compound 19, (R)-N-(piperidin-3-yl)-6-(6-(pyrazolo[1,5-a]pyridin-3-yl)imidazo[1,2-b]pyridazin-3-yl)pyridin-2-amine] | 142
COc1cc2ncc(-c3nc(N[C@H]4CNC[C@@H]4F)c(F)cc3F)n2nc1C1CC1 [Compound 107, 6-(6-cyclopropyl-7-methoxyimidazo[1,2-b]pyridazin-3-yl)-3,5-difluoro-N-((3S,4S)-4-fluoropyrrolidin-3-yl)pyridin-2-amine] | 4890
COc1cc2ncc(-c3nc(N[C@H]4CNC[C@@H]4F)c(F)cc3F)n2nc1C(C)(C)O [Compound 126, 2-(3-(3,5-difluoro-6-(((3S,4S)-4-fluoropyrrolidin-3-yl)amino)pyridin-2-yl)-7-methoxyimidazo[1,2-b]pyridazin-6-yl)propan-2-ol] | 1160
COc1cc2ncc(-c3nc(N[C@@H]4CCCNC4)c(F)cc3F)n2nc1C(C)(C)O [Compound 127, (R)-2-(3-(3,5-difluoro-6-(piperidin-3-ylamino)pyridin-2-yl)-7-methoxyimidazo[1,2-b]pyridazin-6-yl)propan-2-ol] | 196

Now those with a lower IC50, led by results:

IC50 [nM] | SMILES
18 | COc1cc2ncc(-c3cccc(N[C@H]4CNC[C@@H]4F)n3)n2nc1C1CC1 [Compound 96, 6-(6-cyclopropyl-7-methoxyimidazo[1,2-b]pyridazin-3-yl)-N-((3S,4S)-4-fluoropyrrolidin-3-yl)pyridin-2-amine]
3 | COc1cc2ncc(-c3cccc(N[C@H]4CNC[C@@H]4C(F)(F)F)n3)n2nc1C1CC1 [Compound 99, 6-(6-cyclopropyl-7-methoxyimidazo[1,2-b]pyridazin-3-yl)-N-((3R,4S)-4-(trifluoromethyl)pyrrolidin-3-yl)pyridin-2-amine]
4 | COc1cc2ncc(-c3cccc(N[C@H]4CNCC[C@@H]4F)n3)n2nc1C1CC1 [Compound 102, 6-(6-cyclopropyl-7-methoxyimidazo[1,2-b]pyridazin-3-yl)-N-((3S,4S)-4-fluoropiperidin-3-yl)pyridin-2-amine]
< 0.5 | COc1cc2ncc(-c3nc(N[C@@H]4CCCNC4)c(F)cc3F)n2nc1C1CC1 [Compound 106, (R)-6-(6-cyclopropyl-7-methoxyimidazo[1,2-b]pyridazin-3-yl)-3,5-difluoro-N-(piperidin-3-yl)pyridin-2-amine]
< 0.5 | COc1cc2ncc(-c3nc(N[C@H]4CNCC[C@@H]4F)c(F)cc3F)n2nc1C1CC1 [Compound 108, 6-(6-cyclopropyl-7-methoxyimidazo[1,2-b]pyridazin-3-yl)-3,5-difluoro-N-((3S,4S)-4-fluoropiperidin-3-yl)pyridin-2-amine]
102 | COc1cc2ncc(-c3nc(N[C@H]4CNCC[C@@H]4F)c(F)cc3F)n2nc1C(C)(C)O [Compound 128, 2-(3-(3,5-difluoro-6-(((3S,4S)-4-fluoropiperidin-3-yl)amino)pyridin-2-yl)-7-methoxyimidazo[1,2-b]pyridazin-6-yl)propan-2-ol]
